What was measured:
Assay in all cases: relative viability (nuclei count vs DMSO), 5 days (fraction); higher = more cells survive
EKVX = test system: EKVX
Summary of the method: (§1)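 The day after seeding in 1536-well plates, lung cancer cell lines were treated by pin tool with a single drug, or with a fixed anchor-drug dose together with five library-drug doses (not always all listed) in √10 steps. After 5 days, a combined fix-and-stain solution (final 0.05% Triton X-100, 1% formaldehyde, 1 ug/ml Hoechst) was added. Nuclei counted on 4× images gave relative viability as treated counts over vehicle counts, reported as the median of duplicate plates.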

NCI-H23 = test system: NCI-H23
Summary of the method: as §1

NCI-H596 = test system: NCI-H596
Summary of the method: as §1

201T = test system: 201T
Summary of the method: as §1

NCI-H2126 = test system: NCI-H2126
Summary of the method: as §1

LCLC-103H = test system: LCLC-103H
Summary of the method: as §1

NCI-H727 = test system: NCI-H727
Summary of the method: as §1

NCI-H3122 = test system: NCI-H3122
Summary of the method: as §1

NCI-H2405 = test system: NCI-H2405
Summary of the method: as §1

NCI-H661 = test system: NCI-H661
Summary of the method: as §1

HARA = test system: HARA
Summary of the method: as §1

LOU-NH91 = test system: LOU-NH91
Summary of the method: as §1

HOP-62 = test system: HOP-62
Summary of the method: as §1

SK-LU-1 = test system: SK-LU-1
Summary of the method: as §1

NCI-H2228 = test system: NCI-H2228
Summary of the method: as §1

NCI-H1975 = test system: NCI-H1975
Summary of the method: as §1

PC-3 [JPC-3] = test system: PC-3 [JPC-3]
Summary of the method: as §1

NCI-H650 = test system: NCI-H650
Summary of the method: as §1

HCC-827 = test system: HCC-827
Summary of the method: as §1

SW 900 = test system: SW 900
Summary of the method: as §1

COR-L 105 = test system: COR-L 105
Summary of the method: as §1

H3255 = test system: H3255
Summary of the method: as §1

ChaGo-K-1 = test system: ChaGo-K-1
Summary of the method: as §1

Molecule `Cc1csc(=NC2CCCCC2)n1/N=C/c1ccc(O)c(O)c1O` [MIM1] + COc1cc2c(Oc3ccc(NC(=O)C4(C(=O)Nc5ccc(F)cc5)CC4)cc3F)ccnc2cc1OCCCN1CCOCC1 [Foretinib] (partner 0.25 µM) has a relative viability (EKVX; first compound 0.2 µM) of 0.766, a relative viability (EKVX; first compound 0.6325 µM) of 0.234 and a relative viability (EKVX; first compound 2 µM) of 0.75. It also gave a relative viability (EKVX; first compound 6.325 µM) of 0.379, a relative viability (EKVX; first compound 20 µM) of 0.422 and a relative viability (NCI-H23; first compound 0.2 µM) of 1.07. The relative viability (NCI-H23; first compound 2 µM) was 0.791, the relative viability (NCI-H23; first compound 6.325 µM) was 0.812 and the relative viability (NCI-H23; first compound 20 µM) was 0.263. The relative viability (NCI-H596; first compound 0.2 µM) was 0.886, the relative viability (NCI-H596; first compound 0.6325 µM) was 0.741 and the relative viability (NCI-H596; first compound 2 µM) was 0.858. For the same molecule, the relative viability (NCI-H596; first compound 6.325 µM) was 0.848, the relative viability (NCI-H596; first compound 20 µM) was 0.636 and the relative viability (201T; first compound 0.2 µM) was 1.11. For the same molecule, the relative viability (201T; first compound 2 µM) was 0.993, the relative viability (201T; first compound 6.325 µM) was 0.709 and the relative viability (201T; first compound 20 µM) was 0.483. It also gave a relative viability (NCI-H2126; first compound 0.2 µM) of 1.14, a relative viability (NCI-H2126; first compound 0.6325 µM) of 1.17 and a relative viability (NCI-H2126; first compound 2 µM) of 1.35. The relative viability (NCI-H2126; first compound 6.325 µM) was 1.12, the relative viability (NCI-H2126; first compound 20 µM) was 0.491 and the relative viability (LCLC-103H; first compound 0.2 µM) was 0.82. For the same molecule, the relative viability (LCLC-103H; first compound 0.6325 µM) was 0.833, the relative viability (LCLC-103H; first compound 2 µM) was 0.942 and the relative viability (LCLC-103H; first compound 6.325 µM) was 0.545. For the same molecule, the relative viability (LCLC-103H; first compound 20 µM) was 0.364, the relative viability (NCI-H727; first compound 0.2 µM) was 0.948 and the relative viability (NCI-H727; first compound 0.6325 µM) was 0.883. It also gave a relative viability (NCI-H727; first compound 2 µM) of 0.732, a relative viability (NCI-H727; first compound 6.325 µM) of 0.968 and a relative viability (NCI-H727; first compound 20 µM) of 0.439. It also gave a relative viability (NCI-H3122; first compound 0.2 µM) of 0.891, a relative viability (NCI-H3122; first compound 0.6325 µM) of 1.03 and a relative viability (NCI-H3122; first compound 2 µM) of 1.03. It also gave a relative viability (NCI-H3122; first compound 6.325 µM) of 0.683, a relative viability (NCI-H3122; first compound 20 µM) of 0.64 and a relative viability (NCI-H2405; first compound 0.2 µM) of 1.05. For the same molecule, the relative viability (NCI-H2405; first compound 0.6325 µM) was 1.05, the relative viability (NCI-H2405; first compound 2 µM) was 1 and the relative viability (NCI-H2405; first compound 6.325 µM) was 0.741. For the same molecule, the relative viability (NCI-H2405; first compound 20 µM) was 0.866, the relative viability (NCI-H661; first compound 0.2 µM) was 0.933 and the relative viability (NCI-H661; first compound 0.6325 µM) was 1. It also gave a relative viability (NCI-H661; first compound 2 µM) of 0.939, a relative viability (NCI-H661; first compound 6.325 µM) of 0.75 and a relative viability (NCI-H661; first compound 20 µM) of 0.355. It also gave a relative viability (HARA; first compound 0.2 µM) of 0.954, a relative viability (HARA; first compound 2 µM) of 0.991 and a relative viability (HARA; first compound 6.325 µM) of 0.868. It also gave a relative viability (HARA; first compound 20 µM) of 0.131, a relative viability (LOU-NH91; first compound 0.2 µM) of 0.9 and a relative viability (LOU-NH91; first compound 0.6325 µM) of 0.965. For the same molecule, the relative viability (LOU-NH91; first compound 2 µM) was 0.833, the relative viability (LOU-NH91; first compound 6.325 µM) was 0.807 and the relative viability (LOU-NH91; first compound 20 µM) was 0.39. It also gave a relative viability (HOP-62; first compound 0.2 µM) of 1.14, a relative viability (HOP-62; first compound 0.6325 µM) of 1.1 and a relative viability (HOP-62; first compound 2 µM) of 0.986. For the same molecule, the relative viability (HOP-62; first compound 6.325 µM) was 0.94, the relative viability (HOP-62; first compound 20 µM) was 0.278 and the relative viability (SK-LU-1; first compound 0.2 µM) was 0.849. The relative viability (SK-LU-1; first compound 0.6325 µM) was 0.821, the relative viability (SK-LU-1; first compound 2 µM) was 0.849 and the relative viability (SK-LU-1; first compound 6.325 µM) was 0.75. For the same molecule, the relative viability (SK-LU-1; first compound 20 µM) was 0.788, the relative viability (NCI-H2228; first compound 0.2 µM) was 1.06 and the relative viability (NCI-H2228; first compound 0.6325 µM) was 0.951. The relative viability (NCI-H2228; first compound 2 µM) was 0.853, the relative viability (NCI-H2228; first compound 6.325 µM) was 0.583 and the relative viability (NCI-H2228; first compound 20 µM) was 0.247. For the same molecule, the relative viability (NCI-H1975; first compound 0.2 µM) was 0.905, the relative viability (NCI-H1975; first compound 0.6325 µM) was 0.96 and the relative viability (NCI-H1975; first compound 2 µM) was 0.837. For the same molecule, the relative viability (NCI-H1975; first compound 6.325 µM) was 0.493, the relative viability (NCI-H1975; first compound 20 µM) was 0.316 and the relative viability (PC-3 [JPC-3]; first compound 0.2 µM) was 1.01. The relative viability (PC-3 [JPC-3]; first compound 0.6325 µM) was 1.05, the relative viability (PC-3 [JPC-3]; first compound 2 µM) was 1.01 and the relative viability (PC-3 [JPC-3]; first compound 6.325 µM) was 0.763. The relative viability (PC-3 [JPC-3]; first compound 20 µM) was 0.531, the relative viability (NCI-H650; first compound 0.2 µM) was 1.05 and the relative viability (NCI-H650; first compound 0.6325 µM) was 1.05. It also gave a relative viability (NCI-H650; first compound 2 µM) of 1.02, a relative viability (NCI-H650; first compound 6.325 µM) of 0.924 and a relative viability (NCI-H650; first compound 20 µM) of 0.412. For the same molecule, the relative viability (HCC-827; first compound 0.2 µM) was 1.04, the relative viability (HCC-827; first compound 0.6325 µM) was 1 and the relative viability (HCC-827; first compound 2 µM) was 1.01. It also gave a relative viability (HCC-827; first compound 6.325 µM) of 0.402, a relative viability (HCC-827; first compound 20 µM) of 0.207 and a relative viability (SW 900; first compound 0.2 µM) of 1.17. For the same molecule, the relative viability (SW 900; first compound 0.6325 µM) was 0.864, the relative viability (SW 900; first compound 2 µM) was 0.854 and the relative viability (SW 900; first compound 6.325 µM) was 0.917. For the same molecule, the relative viability (SW 900; first compound 20 µM) was 0.443, the relative viability (COR-L 105; first compound 0.2 µM) was 1.02 and the relative viability (COR-L 105; first compound 0.6325 µM) was 0.821. It also gave a relative viability (COR-L 105; first compound 2 µM) of 1.19, a relative viability (COR-L 105; first compound 6.325 µM) of 1.08 and a relative viability (COR-L 105; first compound 20 µM) of 0.774. The relative viability (H3255; first compound 0.2 µM) was 0.945, the relative viability (H3255; first compound 0.6325 µM) was 0.715 and the relative viability (H3255; first compound 2 µM) was 0.743. It also gave a relative viability (H3255; first compound 6.325 µM) of 0.724, a relative viability (H3255; first compound 20 µM) of 0.307 and a relative viability (ChaGo-K-1; first compound 0.2 µM) of 0.973. It also gave a relative viability (ChaGo-K-1; first compound 0.6325 µM) of 1, a relative viability (ChaGo-K-1; first compound 2 µM) of 0.774 and a relative viability (ChaGo-K-1; first compound 6.325 µM) of 0.771. It also gave a relative viability (ChaGo-K-1; first compound 20 µM) of 0.282.
